Like-named read-outs stand apart in the source and are kept apart here. No end group written: not given here.
Assays:
γ-PAK [1] = experiment: Kinetic parameters (Km, Vmax) for phosphorylation of synthetic peptides by γ-PAK; assay type: biochemical, rabbit
Description: (§1) Assays with peptides (I mM) were carried out with γ-PAK (1.6-5.6 units) in 25 μL reaction mixtures incubated for 30 min at 30° C. under conditions described above, except that 0.4 mg/mL of bovine serum albumin was added and the specific activity of ATP was 300-2000 cpm/pmol. Reactions were terminated with 5 μL of 100 mM ATP, and the amount of ^32p incorporated was quantitated by precipitation of 20 μL aliquots on P81 phosphocellulose paper with 75 mM H3PO4 as described previously [Bensen, E. S., et al., Biochim. Biophys. Acta, 1292:249-258 (1996)]. Peptides containing only one basic amino acid were analyzed by thin-layer electrophoresis on cellulose sheets for 2 h at 600 V with pyridine/acetic acid/water (10:100:890), pH 3.5, as solvent, as described previously [Bensen, E. S., et al., supra]. Activation of γ-PAK by autophosphorylation in the presence of Cdc42(GTPγS) was performed as previously described [Jakobi, R., et al., supra]. γ-PAK was also activated by limited digestion with trypsin as described previously [Rooney, R. D., et al., (1996), supra].

γ-PAK [2] = experiment: Rates of phosphorylation of synthetic peptides by γ-PAK; assay type: biochemical, rabbit; settings: for 32P incorporated, %: AKRASAA taken as 100%; for substrate for γ-PAK (in words): synthetic peptides; for rate of phosphorylation compared to AKRASAA: relative to AKRASAA; for rate of phosphorylation compared to ARRASVA: other studies, ARRASVA = 100%
Excerpt: (§2) A. Materials. γ-PAK was purified from rabbit reticulocytes to apparent homogeneity by chromatography on DEAE-cellulose, SP-Sepharose, protamine agarose, and FPLC on Mono S and Mono Q. Histone I (type IIIS), mixed histone (type IIAS), trypsin (L-1-tosylamido-2-phenylethyl chloromethyl ketone treated), soybean trypsin inhibitor, bovine serum albumin (fatty acid free), and myelin basic protein were purchased from Sigma. Purified histones 2B and 4 were purchased from Boehringer-Mannheim. Myosin light chain from rabbit skeletal muscle was a gift from Dr. James Stull, University of Texas Southwestern Medical Center, Dallas, Tex.; rat prolactin was provided by Dr. Ameae Walker, University of California, Riverside, Calif.; and the purified catalytic subunit of cAMP-dependent protein kinase from bovine heart was a gift from Dr. William H. Fletcher, J. L. Pettis Memorial V. A. Hospital, Loma Linda, Calif. Protein kinase C was purified from bovine brain according to the procedure of Walton et al. [Walton, G. M., et al., Anal Biochem., 161:425-437 (1987)], with modifications [Venema, R. C., et al., J. Biol. Chem., 266:5298-5302 (1991)]. The clone for GST-Cdc42 was generously provided by Dr. Channing Der, University of North Carolina, Chapel Hill, N.C. Cellulose thin-layer chromatography sheets were from Kodak.
D. Phosphorylation Assays. Phosphorylation of protein substrates was carried out in 35 μL reaction mixtures containing 20 mM Tris-HCl, pH 7.4, 10 mM MgCl2, 30 mM 2-mercaptoethanol, 0.2 mM ATP (specific activity =1000 cpm/pmol), 2 μg of protein substrate, and 20 units of active γ-PAK (an enzyme unit is defined as the amount of enzyme that incorporates 1 pmol of phosphate into histone IIAS/ min at 30°. Under these conditions, phosphate incorporation was linear and initial rates of phosphorylation were measured. After incubation at 30° C. for 15 min, reactions were terminated by the addition of 5 μL of 100 mM nonlabeled ATP and sample buffer for gel electrophoresis [Hathaway, G. M., et al., Methods Enzymol., 60:495-511 (1979)]. Reaction mixtures were subjected to SDS-PAGE on 15% polyacrylamide gels followed by autoradiography. Phosphorylation was quantified by excising the protein band and counting the incorporated ^32P in a liquid scintillation counter. The specific activity of γ-PAK was 400 pmol min^−1 μg^−1 as reported previously using 0.2 mM ATP and 1 mg/mL mixed histone as substrate [Rooney, R. D., et al., (1996), supra].
as §1
Target sequence in this assay (Q29502 249-500 limits assumed): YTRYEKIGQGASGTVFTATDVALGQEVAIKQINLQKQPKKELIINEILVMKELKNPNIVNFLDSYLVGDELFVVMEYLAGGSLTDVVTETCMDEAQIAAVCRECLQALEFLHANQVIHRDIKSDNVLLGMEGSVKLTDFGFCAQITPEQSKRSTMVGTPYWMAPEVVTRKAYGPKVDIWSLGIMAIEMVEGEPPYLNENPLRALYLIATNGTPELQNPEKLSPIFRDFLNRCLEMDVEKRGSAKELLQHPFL

PKC = experiment: Rates of phosphorylation of synthetic peptides by PKC; assay type: biochemical, bovine; settings: for 32P incorporated: PKC (3.4 units), with Ca2+ and phospholipids, 0.14 mM ATP; for 32P incorporated, %: PKC, AKRASAA taken as 100%
Excerpt: as §2
Reactions with PKA (10.5 units) were carried out under the same conditions as with γ-PAK except that 0.14 mM ATP was used. Reactions with PKC (3.4 units) were performed as with PKA, with the addition of 0.4 mM CaCl2, phosphatidylinositol (15 μg/mL), phosphatidylserine (15 μg/ mL), and 1,2-diolein (3 μg/mL), as described [Tuazon, P. T., et al., (1989), supra]. A unit of PKA or PKC is defined as the amount of enzyme that incorporates 1 pmol of phosphate/min at 30° C. into histone IIAS or histone 1, respectively.
PKA and PKC are known to require basic amino acids on the N-terminal side of the phosphorylatable serine/ threonine. To distinguish their substrate specificities from that of γ-PAK, the relative rates of phosphorylation were determined with the synthetic peptide substrates using the conditions for γ-PAK, with the addition of Ca^2+ and phospholipids for PKC. The rates shown in Table 5 are calculated with equivalent units of enzyme; the rate of phosphorylation of the peptide AKRASAA (SEQ ID NO:6) is taken as 100% for all three enzymes. As would be expected, PKA preferentially phosphorylated the peptides that contained RR or RK at the −3 and −2 positions and with […] residues or proline at the −4 and −1 positions inhibitory. PKC recognized SKR>RKS>KKS. The most notable difference between γ-PAK and PKA or PKC is the effect of acidic residues on the susceptibility of the peptide to be phosphorylated. An acidic residue in the −1 or −4 position was beneficial for γ-PAK but was detrimental for both PKA and PKC (Table 5). […] In addition, γ-PAK could not tolerate an arginine in the −3 position when lysine was in the −2 position.

[3] = Cdc42(GTPγS)-activated γ-PAK, peptide 1 mM, KKRKSAA = 100
[4] = proteolytically (trypsin) activated γ-PAK, peptide 1 mM, compared to KKRKSAA = 100
[5] = proteolytically activated γ-PAK (5.6 units), peptide 1 mM, 30 min at 30° C.
[6] = γ-PAK, calculated with equivalent units of enzyme
[7] = Table 2, influence of basic amino acids, γ-PAK 1.6 units, ATP 0.2 mM
[8] = Table 2, influence of basic amino acids, γ-PAK 1.6 units, ATP 0.2 mM, read-out: Km
[9] = Table 4, influence of proline and glycine
[10] = Table 4, influence of proline and glycine, read-out: Km

Row | Molecule | rel rate (%) (γ-PAK [2]; [3]) | rel rate (%) (γ-PAK [2]; [4]) | 32P incorporated (γ-PAK [2]; [5]) [pmol/min/µg] | substrate for γ-PAK (in words) (γ-PAK [2]) | further results
1 | Nc1ncnc2c1ncn2[C@@H]1O[C@H](COP(=O)(O)OP(=O)(O)OP(=O)(O)O)[C@@H](O)[C@H]1O [ATP, reference compound] | – | – | – | – | Km (γ-PAK [1]; at concentrations of 1-3 mM peptide, read-out: Km for ATP): 65 to 80 µM
2 | AAAASKR (AAAASKR-NH2) [synthetic peptide with an amide C-terminal group] | 0 | 0 | 0 | – | 32P incorporated, % (γ-PAK [2]; γ-PAK): 0%; 32P incorporated (γ-PAK [2]; [6]): 0 pmol/unit; 32P incorporated (PKC): 13.3 pmol/unit; 32P incorporated, % (PKC): 403%
3 | AAKKSAA (AAKKSAA-NH2) [synthetic peptide with an amide C-terminal group] | 0 | 0 | 0 | poor substrates | –
4 | AAKRSAA (AAKRSAA-NH2) [synthetic peptide with an amide C-terminal group] | 0 | 0 | 0 | poor substrates | –
5 | AARASAA (AARASAA-NH2) [synthetic peptide with an amide C-terminal group] | 56 | 56 | 169 | reacted to a small but significant extent | rate of phosphorylation compared to AKRASAA (γ-PAK [2]; γ-PAK): 40%; Vmax (γ-PAK [1]; [7]): 2.27 pmol/min; Km (γ-PAK [1]; [8]): 1880 µM
6 | AKRASGA (AKRASGA-NH2) [synthetic peptide with an amide C-terminal group] | – | 107 | 324 | – | increase of Km compared to AKRASAA (γ-PAK [1]): 4 fold; increase of Vmax compared to AKRASAA (γ-PAK [1]): 3 fold; overall rate of phosphorylation (Vmax/Km) compared to AKRASAA (γ-PAK [1]): slight overall decrease; Vmax (γ-PAK [1]; [9]): 3.49 pmol/min; Km (γ-PAK [1]; [10]): 2090 µM
7 | AKRASPA (AKRASPA-NH2) [synthetic peptide with an amide C-terminal group] | 3 | 0 | 0 | virtually abolished phosphorylation | Km (γ-PAK [1]; [10]): > 5000 µM
8 | AKRGSAA (AKRGSAA-NH2) [synthetic peptide with an amide C-terminal group] | – | 126 | 381 | – | increase of Km compared to AKRASAA (γ-PAK [1]): 7 fold; increase of Vmax compared to AKRASAA (γ-PAK [1]): 6 fold; overall rate of phosphorylation (Vmax/Km) compared to AKRASAA (γ-PAK [1]): slight overall decrease; Vmax (γ-PAK [1]; [9]): 6.44 pmol/min; Km (γ-PAK [1]; [10]): 3520 µM
9 | AKRKSAA (AKRKSAA-NH2) [synthetic peptide with an amide C-terminal group] | 158 | 181 | 548 | – | Vmax (γ-PAK [1]; [7]): 2.34 pmol/min; Km (γ-PAK [1]; [8]): 480 µM
10 | AKRPSAA (AKRPSAA-NH2) [synthetic peptide with an amide C-terminal group] | 11 | 6 | 16 | virtually abolished phosphorylation | 32P incorporated, % (γ-PAK [2]; γ-PAK): 5%; 32P incorporated (γ-PAK [2]; [6]): 1.2 pmol/unit; 32P incorporated (PKC): 3.9 pmol/unit; 32P incorporated, % (PKC): 118%; Km (γ-PAK [1]; [10]): > 5000 µM
11 | ARAASVA [synthetic peptide] | – | – | – | reacted to a small but significant extent | rate of phosphorylation compared to ARRASVA (γ-PAK [2]; γ-PAK): 40%; rate of phosphorylation compared to AKRASAA (γ-PAK [2]; γ-PAK): 40%
12 | ARKASAA (ARKASAA-NH2) [synthetic peptide with an amide C-terminal group] | 9 | 6 | 16 | poor substrates | 32P incorporated, % (γ-PAK [2]; γ-PAK): 3%; 32P incorporated (γ-PAK [2]; [6]): 0.9 pmol/unit; 32P incorporated (PKC): 5.7 pmol/unit; 32P incorporated, % (PKC): 173%; Km (γ-PAK [1]; [8]): > 5000 µM
13 | ARRASVA [synthetic peptide] | – | – | – | – | rate of phosphorylation compared to ARRASVA (γ-PAK [2]; γ-PAK): 100%
14 | KKAASAA (KKAASAA-NH2) [synthetic peptide with an amide C-terminal group] | 3 | 0 | 0 | did not | –
15 | KKRASAA (KKRASAA-NH2) [synthetic peptide with an amide C-terminal group] | 181 | 193 | 586 | – | Vmax (γ-PAK [1]; [7]): 1.59 pmol/min; Km (γ-PAK [1]; [8]): 370 µM
